These results are taken from patent US11020398B2, “Amino-pyrrolopyrimidinone compounds and methods of use thereof” (ArQule, Inc., priority 2016, dated 2021).

pIC50: −log10 of the molar value.

Assay [1] addresses full-length activated BTK (wildtype) (Homo sapiens (Human), UniProt Q06187). Briefly: AlphaScreen assay, wild-type BTK. Format: biochemical. As for the experimental part: (§1) The activated BTK was frozen in 50 μl aliquots (125-150 μg/ml).
(§2) BTK activity was assayed using a PLCγ2-derived biotinylated peptide substrate (biotin-[…]-OH) and AlphaScreen™ (Amplified Luminescent Proximity Homogeneous Assay) technology. The extent of peptide phosphorylation was determined by using acceptor beads conjugated to phosphotyrosine antibody that recognized the phosphorylated peptide and donor beads conjugated to streptavidin that binds to the biotin on the peptide. Excitation of the donor beads converted ambient oxygen to excited singlet oxygen which when in close proximity to acceptor beads, reacted with acceptor beads resulting in signal amplification.
(§3) Test inhibitors and controls were prepared in 10% DMSO at 10-fold the desired final concentration and added to each well of a reaction plate (Corning 96-well half-area solid white nonbinding surface plate) in a volume of 2.5 μl. […] The plate was incubated for 120 min at room temperature and the reaction stopped by the addition of 10 μl stop/detection mixture containing 35 mM EDTA, 50 ug/ml AlphaScreen™ Streptavidin Donor beads (final concentration is 500 ng/well) and AlphaScreen™ Phospho-tyrosine (P-Tyr-100) Acceptor beads (final concentration is 500 ng/well) under green light conditions. The plate was incubated overnight at room temperature in the dark and the plates read on the BMG PolarStar Omega ([…], Gain=4000). Data were archived and analyzed with a 4-parameter fit to generate IC50 values using the CDD Vault from Collaborative Drug Discovery.

The target in assay [2] is full-length activated BTK mutant C481S (Homo sapiens (Human), UniProt Q06187, C481S). Briefly: AlphaScreen assay, BTK mutant C481S. Format: biochemical. The following applies: for inhibition at 10 µM: read-out: BTK-C481S % @ 10 uM, @ 10 uM. As for the experimental part:
as §1, §2, §3

full-length activated BTK (wildtype), sequence (Q06187 whole entry): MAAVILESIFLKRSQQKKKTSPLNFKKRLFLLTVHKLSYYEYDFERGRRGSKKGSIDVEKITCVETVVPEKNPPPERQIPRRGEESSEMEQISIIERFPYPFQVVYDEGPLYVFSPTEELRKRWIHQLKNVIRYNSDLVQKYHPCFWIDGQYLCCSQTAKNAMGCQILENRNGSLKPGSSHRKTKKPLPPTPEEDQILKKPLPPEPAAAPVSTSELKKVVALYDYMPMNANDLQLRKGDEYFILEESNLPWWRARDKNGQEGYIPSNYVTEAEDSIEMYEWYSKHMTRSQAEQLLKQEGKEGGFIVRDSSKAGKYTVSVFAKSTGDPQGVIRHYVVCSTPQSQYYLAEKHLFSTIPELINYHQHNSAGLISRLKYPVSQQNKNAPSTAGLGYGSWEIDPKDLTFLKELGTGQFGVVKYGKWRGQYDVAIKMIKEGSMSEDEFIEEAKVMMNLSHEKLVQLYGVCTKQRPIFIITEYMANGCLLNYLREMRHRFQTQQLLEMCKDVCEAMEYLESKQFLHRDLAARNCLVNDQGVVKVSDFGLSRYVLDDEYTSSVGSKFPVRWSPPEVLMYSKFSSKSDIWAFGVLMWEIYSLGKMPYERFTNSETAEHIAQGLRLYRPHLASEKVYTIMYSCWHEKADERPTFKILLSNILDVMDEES
full-length activated BTK mutant C481S, sequence (Q06187 whole entry C481S): as the sequence (Q06187 whole entry) above, with C481S counted along it

Turning to `O=C(c1ccc(Oc2ccccc2)cc1Cl)c1c[nH]c2ncnc(N[C@H]3CN[C@H](CO)C3)c12` [Compound I-345e, (2-chloro-4-phenoxyphenyl)(4-(((3R,5S)-5-(hydroxymethyl)pyrrolidin-3-yl)amino)-7H-pyrrolo[2,3-d]pyrimidin-5-yl)methanone], the pIC50 in assay [1] was 8.00; in assay [2], 7.17.

As to `O=C(c1ccc(Oc2ccccc2)cc1Cl)c1c[nH]c2ncnc(NC[C@H]3CC[C@@H](CO)O3)c12` [Compound I-362e, (2-chloro-4-phenoxyphenyl)(4-((((2R,5S)-5-(hydroxymethyl)tetrahydrofuran-2-yl)methyl)amino)-7H-pyrrolo[2,3-d]pyrimidin-5-yl)methanone], the negative logarithm of the IC50 (pIC50) in assay [1] was 7.45; in assay [2] it was 7.35.

For the compound `O=C(c1ccc(Oc2ccccc2)cc1Cl)c1c[nH]c2ncnc(NC[C@H]3CN[C@H](CO)C3)c12` [Compound I-369e, (2-chloro-4-phenoxyphenyl)(4-((((3R,5S)-5-(hydroxymethyl)pyrrolidin-3-yl)methyl)amino)-7H-pyrrolo[2,3-d]pyrimidin-5-yl)methanone], the pIC50 is 7.70 in assay [1] and 6.86 in assay [2].

Take `CN1C[C@H](CNc2ncnc3[nH]cc(C(=O)c4ccc(Oc5ccccc5)cc4Cl)c23)C[C@H]1CO` [Compound I-370e, (2-chloro-4-phenoxyphenyl)(4-((((3S,5S)-5-(hydroxymethyl)-1-methylpyrrolidin-3-yl)methyl)amino)-7H-pyrrolo[2,3-d]pyrimidin-5-yl)methanone]: the pIC50 in assay [1] was 7.23; in assay [2], 7.30.

As to `O=C(Nc1ccc(Cl)c(C(=O)c2c[nH]c3ncnc(N[C@@H]4CC[C@@H](CO)OC4)c23)c1)c1ccccc1` [Compound I-601, N-(4-chloro-3-(4-(((3R,6S)-6-(hydroxymethyl)tetrahydro-2H-pyran-3-yl)amino)-7H-pyrrolo[2,3-d]pyrimidine-5-carbonyl)phenyl)benzamide], the values for the pIC50 in assay [1] and in assay [2] were 7.68 and 6.94, respectively.

Consider `O=C(Cc1ccccc1)Nc1ccc(Cl)c(C(=O)c2c[nH]c3ncnc(N[C@@H]4CC[C@@H](CO)OC4)c23)c1` [Compound I-602, N-(4-chloro-3-(4-(((3R,6S)-6-(hydroxymethyl)tetrahydro-2H-pyran-3-yl)amino)-7H-pyrrolo[2,3-d]pyrimidine-5-carbonyl)phenyl)-2-phenylacetamide], for which the pIC50 in assay [1] is 6.85; in assay [2], 6.50.

`O=C(c1cc(NC(=O)C2CCOCC2)ccc1Cl)c1c[nH]c2ncnc(N[C@@H]3CC[C@@H](CO)OC3)c12` [Compound I-603, N-(4-chloro-3-(4-(((3R,6S)-6-(hydroxymethyl)tetrahydro-2H-pyran-3-yl)amino)-7H-pyrrolo[2,3-d]pyrimidine-5-carbonyl)phenyl)tetrahydro-2H-pyran-4-carboxamide]: the values for the pIC50 in assay [1] and in assay [2] were 6.33 and 5.75, respectively.

As to `O=C(Nc1ccc(Cl)c(C(=O)c2c[nH]c3ncnc(N[C@@H]4CC[C@@H](CO)OC4)c23)c1)c1cncs1` [Compound I-604, N-(4-chloro-3-(4-(((3R,6S)-6-(hydroxymethyl)tetrahydro-2H-pyran-3-yl)amino)-7H-pyrrolo[2,3-d]pyrimidine-5-carbonyl)phenyl)thiazole-5-carboxamide], the negative logarithm of the IC50 (pIC50) was 6.52 in assay [1] and 6.14 in assay [2].

`O=C(c1cc(NC(=O)C2(c3ccccc3)CC2)ccc1Cl)c1c[nH]c2ncnc(N[C@@H]3CC[C@@H](CO)OC3)c12` [Compound I-605, N-(4-chloro-3-(4-(((3R,6S)-6-(hydroxymethyl)tetrahydro-2H-pyran-3-yl)amino)-7H-pyrrolo[2,3-d]pyrimidine-5-carbonyl)phenyl)-1-phenylcyclopropane-1-carboxamide]: the negative logarithm of the IC50 (pIC50) in assay [1] was 6.33; in assay [2], 5.73.

For `O=C(Nc1ccc(Cl)c(C(=O)c2c[nH]c3ncnc(N[C@@H]4CC[C@@H](CO)OC4)c23)c1)c1cc2c(cn1)CCCC2` [Compound I-606, N-(4-chloro-3-(4-(((3R,6S)-6-(hydroxymethyl)tetrahydro-2H-pyran-3-yl)amino)-7H-pyrrolo[2,3-d]pyrimidine-5-carbonyl)phenyl)-5,6,7,8-tetrahydroisoquinoline-3-carboxamide], the pIC50 in assay [1] is 9.01; in assay [2], 7.25.

Turning to `O=C(Nc1ccc(Cl)c(C(=O)c2c[nH]c3ncnc(N[C@@H]4CC[C@@H](CO)OC4)c23)c1)c1nccc2ccccc12` [Compound I-607, N-(4-chloro-3-(4-(((3R,6S)-6-(hydroxymethyl)tetrahydro-2H-pyran-3-yl)amino)-7H-pyrrolo[2,3-d]pyrimidine-5-carbonyl)phenyl)isoquinoline-1-carboxamide], the pIC50 in assay [1] was 7.86; in assay [2] it was 6.67.

Take `O=C(Nc1ccccc1)Nc1ccc(Cl)c(C(=O)c2c[nH]c3ncnc(N[C@@H]4CC[C@@H](CO)OC4)c23)c1` [Compound I-608, 1-(4-chloro-3-(4-(((3R,6S)-6-(hydroxymethyl)tetrahydro-2H-pyran-3-yl)amino)-7H-pyrrolo[2,3-d]pyrimidine-5-carbonyl)phenyl)-3-phenylurea]: the results for the negative-log IC50 (pIC50) in assay [1] and in assay [2] were 8.09 and 6.73, respectively.

Consider `O=C(Nc1cccnc1)Nc1ccc(Cl)c(C(=O)c2c[nH]c3ncnc(N[C@@H]4CC[C@@H](CO)OC4)c23)c1` [Compound I-609, 1-(4-chloro-3-(4-(((3R,6S)-6-(hydroxymethyl)tetrahydro-2H-pyran-3-yl)amino)-7H-pyrrolo[2,3-d]pyrimidine-5-carbonyl)phenyl)-3-(pyridin-3-yl)urea], for which the pIC50 in assay [1] was 6.94; in assay [2], 6.28.

On to `COCCNC(=O)c1ccc(C(=O)c2c[nH]c3ncnc(N[C@@H]4CC[C@@H](CO)OC4)c23)c(Cl)c1` [Compound I-610, 3-chloro-4-(4-(((3R,6S)-6-(hydroxymethyl)tetrahydro-2H-pyran-3-yl)amino)-7H-pyrrolo[2,3-d]pyrimidine-5-carbonyl)-N-(2-methoxyethyl) benzamide], for which the negative-log IC50 (pIC50) in assay [1] was 6.31; in assay [2] it was 5.94.

For `O=C(c1ccc(C(=O)N2CCOCC2)cc1Cl)c1c[nH]c2ncnc(N[C@@H]3CC[C@@H](CO)OC3)c12` [Compound I-611, (3-chloro-4-(4-(((3R,6S)-6-(hydroxymethyl)tetrahydro-2H-pyran-3-yl)amino)-7H-pyrrolo[2,3-d]pyrimidine-5-carbonyl)phenyl)(morpholino) methanone], the negative logarithm of the IC50 (pIC50) was 5.94 in assay [1] and 5.82 in assay [2].

The compound `O=C(c1cc(C(=O)N2CCOCC2)ccc1Cl)c1c[nH]c2ncnc(N[C@@H]3CC[C@@H](CO)OC3)c12` [Compound I-612, (4-chloro-3-(4-(((3R,6S)-6-(hydroxymethyl)tetrahydro-2H-pyran-3-yl)amino)-7H-pyrrolo[2,3-d]pyrimidine-5-carbonyl)phenyl)(morpholino) methanone] gave a pIC50 in assay [1] of 5.79. In addition, the inhibition at 10 µM in assay [2] is 82%.

Regarding `O=C(NCCN1CCOCC1)c1ccc(C(=O)c2c[nH]c3ncnc(N[C@@H]4CC[C@@H](CO)OC4)c23)c(Cl)c1` [Compound I-613, 3-chloro-4-(4-(((3R,6S)-6-(hydroxymethyl)tetrahydro-2H-pyran-3-yl)amino)-7H-pyrrolo[2,3-d]pyrimidine-5-carbonyl)-N-(2-morpholinoethyl) benzamide], the inhibition at 10 µM in assay [1] (read-out: BTK % @ 10 uM, @ 10 uM) stood at 87%; in assay [2], 64%.
